This is an account of results in US5622934A, “Peptides with an insulin-like action” (priority 1991, dated 1997).

In one assay the test system is rat fat cells. Put plainly: Lipogenesis: conversion of glucose to toluene-soluble products in isolated rat fat cells. The class given is cell-based. The following applies: for Concentration [μM] at which 25% of the max. HI action is reached (lipogenesis): 25% of the maximum human insulin action; for Lipogenesis % of the max. HI action: 90 min at 37° C., D-[3-3H]glucose, human insulin (HI) = 100%. Here is the method: (§1) The biological activity of the peptides of formula I according to the invention is determined with the aid of preparatively isolated rat fat cells and diaphragm fragments.
(§2) Rat fat cells were prepared as follows: Fatty tissue of the epididymis (Wistar rat, 160-180 g, no feed restriction) is digested with collagenase and the resulting isolated fat cells are washed several times by flotation.
This test determines the insulin-stimulatable conversion of glucose to toluene-soluble products (triglycerides, phospholipids, fatty acids), requiring the glucose transport and the triglyceride (glycerol-3-P synthesis, esterification)/phospholipid/fatty acid synthesis, including the insulin signal transmission cascade.
Rat fat cells in KRH buffer are incubated for 90 min at 37° C. with D-[3-^3 H]glucose (0.2 mM or 1 mM final concentration) in the presence or absence of insulin or peptides according to the invention. By the addition of a toluene-soluble scintillation cocktail, the cells are digested and the lipids separated from water-soluble products and the incubation medium. After phase separation, the radioactivity incorporated into lipids is determined by scintillation measurement directly without removal of the aqueous phase ([^3 H]lipid [dpm×10^-3 ]).
(§3) The action of human insulin (HI) is given a value of 100%. The concentration data of the peptides according to the invention used are based on the concentration at which 25% or 20% of the maximum HI action is reached.

For assay [1], the system named is plasma membrane vesicles from rat fat cells. In words: Glucose transport activity in isolated plasma membrane vesicles. Type of assay: biochemical. The following applies: for Concentration [μM] at which 20% of the max. HI action is reached (glucose transport): 20% of the maximum human insulin action; for Glucose transport % of the max. HI action: 30 min at 25° C., then 10 sec with 50 μM D-[3-3H]glucose, human insulin (HI) = 100%. As to the method: as §1, §2
C) Glucose transport activity
Isolated plasma membrane vesicles are obtained from rat fat cells by washing the fat cells twice in homogenization buffer (20 mM trihydroxyaminomethane (Tris)/HCl, pH 7.4, 1 mM, 4° C., EDTA, 0.25M sucrose) and then homogenizing them in 20 ml of the same buffer (glass homogenizer with Teflon pestle).
The homogenate is centrifuged (16,000×g, 15 min) and the sediment is suspended in the same buffer and centrifuged again. The sediment is suspended in 5 ml of homogenization buffer and layered onto a sucrose cushion (1.12M sucrose, 20 mM Tris/HCl, pH 7.4, 1 mM EDTA); after centrifugation (100,000×g, 70 min), the interphase containing the plasma membrane vesicles is removed with a syringe, diluted with 45 ml of buffer and centrifuged again (48,000×g, 45 min). The sediment is suspended in 10 ml of buffer, centrifuged again and resuspended in 3 ml of buffer.
Isolated plasma membrane vesicles are incubated for 30 min at 25° C. in the presence or absence of insulin or the peptides according to the invention. The vesicles are then incubated for 10 sec at 25° C. with 50 μM D-[3-^3 H]glucose and […] of the same specific radioactivity. The mixtures are rapidly filtered with suction on nitrocellulose filters. The filters are washed copiously and dried. Their radioactivity is determined by liquid scintillation measurement. The specific transport (D-[^3 H]glucose/L-[^4 C]glucose [dpm×10^-3 ]) is calculated as the difference between the [^3 H] and [^14 C] radioactivity.
as §3

In the next assay the test system is rat diaphragm fragments. Put plainly: Glycogenesis: glycogen synthesis in rat diaphragm fragments. The class given is cell-based. Particulars: for Concentration [μM] at which 25% of the max. HI action is reached (glycogenesis): 25% of the maximum human insulin action; for Glycogenesis % of the max. HI action: 15 min at 37° C., 50 μM D-[U-14C]glucose, human insulin (HI) = 100%. As to the method: as §1
Preparation of rat diaphragm fragments: Small tissue fragments (5 mm diameter) are punched out of hemidiaphragms (Wistar rat, 60-70 g, no feed restriction) which have been washed several times.
This test determines the insulin-stimulatable glycogen synthesis in muscle cells, comprising the glucose transport via the plasma membrane and the conversion of the glucose to glycogen, including the functional insulin signal transmission cascade.
Diaphragm fragments are incubated for 15 min at 37° C. in Krebs-Ringer-Henseleit buffer (KRH buffer) with 50 μM D-[U-^14 C]glucose in the presence or absence of insulin or the peptides according to the invention. After the medium has been filtered with suction, the tissue fragments are intensively washed, frozen at -70° C. and then homogenized at 2° C. in a Polytron pulverizer. The homogenate is centrifuged (2000 g) and the supernatant is pipetted onto filter paper. To determine the glycogen formed, the filters are transferred into trichloroacetic acid (TCA) (5%), washed with ethanol and acetone and dried and their radioactivity is determined via scintillation measurement ([^14 C]glycogen [dpm×10^-3 ]).
as §3

Regarding “Acetyl--L--Tyr--L--Cys--L--Asn--NH--CH2 --CH2 OH [Example 11]”, in the assay on rat fat cells, the “Concentration [μM] at which 25% of the max. HI action is reached (lipogenesis)” value came out at 200 µM and the “Lipogenesis % of the max. HI action” value was 36%. In addition, in assay [1], the “Concentration [μM] at which 20% of the max. HI action is reached (glucose transport)” value was 260 µM and the “Glucose transport % of the max. HI action” value (“Glucose transport %” for short) was found to be 40%. Moreover, in the assay on rat diaphragm fragments, the “Concentration [μM] at which 25% of the max. HI action is reached (glycogenesis)” value stood at 240 µM and the “Glycogenesis % of the max. HI action” value came out at 45%.

In the case of “H--(3--(thien--2--yl)--L--Ala)--L--Cys--L--Asn--OH [Example 8]”, in the assay on rat fat cells, the “Concentration [μM] at which 25% of the max. HI action is reached (lipogenesis)” value turned out to be 450 µM and the “Lipogenesis % of the max. HI action” value was 26%. Moreover, in assay [1], the “Concentration [μM] at which 20% of the max. HI action is reached (glucose transport)” value came to 410 µM and the “Glucose transport %” value is on record as 25%. Also, in the assay with rat diaphragm fragments, the “Concentration [μM] at which 25% of the max. HI action is reached (glycogenesis)” value worked out at 375 µM and the “Glycogenesis % of the max. HI action” value is recorded as 31%.

For “H--D--Tyr--L--Cys--L--Asn--NH--CH2 --CH2 OH [Example 4]”, in the assay on rat fat cells, the “Concentration [μM] at which 25% of the max. HI action is reached (lipogenesis)” value came to 410 µM and the “Lipogenesis % of the max. HI action” value turned out to be 31%. For the same substance, in assay [1], the “Concentration [μM] at which 20% of the max. HI action is reached (glucose transport)” value was found to be 260 µM and the “Glucose transport %” value was 38%. Further, the “Glycogenesis % of the max. HI action” value in the assay on rat diaphragm fragments turned out to be 23%.

“H--L--Asn--L--Cys--L--Tyr--NH--CH2 --CH2 OH [Example 3]”: in the assay with rat fat cells, the “Concentration [μM] at which 25% of the max. HI action is reached (lipogenesis)” value was 375 µM and the “Lipogenesis % of the max. HI action” value came to 31%. In assay [1], the “Concentration [μM] at which 20% of the max. HI action is reached (glucose transport)” value was 225 µM and the “Glucose transport %” value is 38%. Further, in the assay with rat diaphragm fragments, the “Concentration [μM] at which 25% of the max. HI action is reached (glycogenesis)” value worked out at 285 µM and the “Glycogenesis % of the max. HI action” value was 42%.

Turning to “H--L--Cys--L--Asn--NH--CH2 --CH2 OH [Example 5]”, the “Lipogenesis % of the max. HI action” value in the assay on rat fat cells worked out at 21%. In assay [1], the “Concentration [μM] at which 20% of the max. HI action is reached (glucose transport)” value came out at 600 µM and the “Glucose transport %” value came to 25%. For the same substance, in the assay on rat diaphragm fragments, the “Glycogenesis % of the max. HI action” value came out at 16%.

Regarding “H--L--Cys--L--Tyr--NH--CH2 --CH2 OH [Example 6]”, the “Lipogenesis % of the max. HI action” value in the assay with rat fat cells turned out to be 17%. Further, in assay [1], the “Concentration [μM] at which 20% of the max. HI action is reached (glucose transport)” value was found to be 750 µM and the “Glucose transport %” value came to 24%. Moreover, in the assay on rat diaphragm fragments, the “Concentration [μM] at which 25% of the max. HI action is reached (glycogenesis)” value was found to be 480 µM and the “Glycogenesis % of the max. HI action” value is on record as 32%.

For “H--L--Tyr--L--Cys--L--Asn--NH--(CH2)2 --O--PO(OH)--O(CH2)2 --CN [Example 13]”, in the assay with rat fat cells, the “Concentration [μM] at which 25% of the max. HI action is reached (lipogenesis)” value was found to be 120 µM and the “Lipogenesis % of the max. HI action” value came to 33%. In assay [1], the “Concentration [μM] at which 20% of the max. HI action is reached (glucose transport)” value is 140 µM and the “Glucose transport %” value turned out to be 36%. In the assay on rat diaphragm fragments, the “Concentration [μM] at which 25% of the max. HI action is reached (glycogenesis)” value was determined as 100 µM and the “Glycogenesis % of the max. HI action” value came out at 31%.

“H--L--Tyr--L--Cys--L--Asn--NH--(CH2)2 --O--PO(OH)--O--6Manα1--2Manα1--O--CH3 [Example 15]”: in the assay on rat fat cells, the “Concentration [μM] at which 25% of the max. HI action is reached (lipogenesis)” value came to 142 µM and the “Lipogenesis % of the max. HI action” value is reported as 35%. Further, in assay [1], the “Concentration [μM] at which 20% of the max. HI action is reached (glucose transport)” value was 122 µM and the “Glucose transport %” value is recorded as 32%. Besides, in the assay on rat diaphragm fragments, the “Concentration [μM] at which 25% of the max. HI action is reached (glycogenesis)” value worked out at 139 µM and the “Glycogenesis % of the max. HI action” value is 29%.

On to “H--L--Tyr--L--Cys--L--Asn--NH--CH2 --CH2 --NH2 [Example 10]”, for which, in the assay with rat fat cells, the “Concentration [μM] at which 25% of the max. HI action is reached (lipogenesis)” value was 330 µM and the “Lipogenesis % of the max. HI action” value is reported as 30%. In addition, in assay [1], the “Concentration [μM] at which 20% of the max. HI action is reached (glucose transport)” value stood at 300 µM and the “Glucose transport %” value is 42%. Further, in the assay with rat diaphragm fragments, the “Concentration [μM] at which 25% of the max. HI action is reached (glycogenesis)” value was 450 µM and the “Glycogenesis % of the max. HI action” value was found to be 25%.

Take “H--L--Tyr--L--Cys--L--Asn--NH--CH2 --CH2 --NH--gluconic acid [Example 9]”: the “Lipogenesis % of the max. HI action” value in the assay on rat fat cells was 12%. In addition, the “Glucose transport %” value in assay [1] is 15%. Besides, in the assay on rat diaphragm fragments, the “Glycogenesis % of the max. HI action” value was 11%.

For the substance “H--L--Tyr--L--Cys--L--Asn--OH [Example 12]”, in the assay with rat fat cells, the “Concentration [μM] at which 25% of the max. HI action is reached (lipogenesis)” value worked out at 750 µM and the “Lipogenesis % of the max. HI action” value was determined as 26%. In assay [1], the “Concentration [μM] at which 20% of the max. HI action is reached (glucose transport)” value is 880 µM and the “Glucose transport %” value is 20%. The “Glycogenesis % of the max. HI action” value with rat diaphragm fragments is given as 15%.

Turning to “H--L--Tyr--L--Cys--NH--(CH2)4 --NH2 [Example 7]”, the “Lipogenesis % of the max. HI action” value with rat fat cells is reported as 18%. Besides, the “Glucose transport %” value in assay [1] was 10%. For the same substance, the “Glycogenesis % of the max. HI action” value in the assay with rat diaphragm fragments is recorded as 2%.

Take “H--L--Tyr--L--Cys--NH--CH2 --CH2 --NH2 [Example 2]”: in the assay with rat fat cells, the “Concentration [μM] at which 25% of the max. HI action is reached (lipogenesis)” value came to 500 µM and the “Lipogenesis % of the max. HI action” value was 32%. Further, in assay [1], the “Concentration [μM] at which 20% of the max. HI action is reached (glucose transport)” value came out at 350 µM and the “Glucose transport %” value came out at 40%. In the assay with rat diaphragm fragments, the “Concentration [μM] at which 25% of the max. HI action is reached (glycogenesis)” value is 650 µM and the “Glycogenesis % of the max. HI action” value is reported as 28%.

With “L--Tyr--L--Cys--L--Asn--NH--(CH2)2 --O--PO(OH)--O--6Manα1--2--Manα1--6Manα1--O--CH3 [Example 16]”, in the assay with rat fat cells, the “Concentration [μM] at which 25% of the max. HI action is reached (lipogenesis)” value stood at 125 µM and the “Lipogenesis % of the max. HI action” value is given as 24%. In assay [1], the “Concentration [μM] at which 20% of the max. HI action is reached (glucose transport)” value was 152 µM and the “Glucose transport %” value amounted to 29%. Moreover, in the assay with rat diaphragm fragments, the “Concentration [μM] at which 25% of the max. HI action is reached (glycogenesis)” value came to 135 µM and the “Glycogenesis % of the max. HI action” value was 25%.
